The values below come from article PMC8869097, “Benzothiazole Derivatives as Multifunctional Antioxidant Agents for Skin Damage: Structure–Activity Relationship of a Scaffold Bearing a Five-Membered Ring System” (Antioxidants, 2022).

The term inhibition denotes the relative decrease from the control value, in per cent.

One data set has as its system Epidermophyton floccosum. The data set can be described thus: Antidermatophyte activity, plaque growth inhibition. The class given is cell-based, Epidermophyton floccosum var. floccosum CBS 358.93. As to conditions: 100 μg/mL, SDA, read-out: % Inhibition Growth E. floccosum. How it is done:
(§1) The dermatophytes used in this study were Epidermophyton floccosum var. floccosum (Netherlands) CBS 358.93 strain, Trichophyton tonsurans (Netherlands) CBS 483.76 strain, Trichophyton mentagrophytes (Netherlands) CBS 160.66 strain, Microsporum canis (Iran) CBS 131,110 strain, and Microsporum gypseum (Iran) CBS 130,948 strain. All dermatophytes were maintained at 4 °C as agar slants on SDA. Candida albicans (ATCC 10231) was maintained at 4 °C on SDA plate.
(§2) The in vitro antifungal activity against the five selected dermatophytes was evaluated, as previously described, using the plaque growth inhibition method. All compounds were evaluated at the final concentration of 100 µg/mL. The percentages of growth inhibition according to Equation (5) were calculated as the average of three different experiments. I = [(C − T)/C] × 100%,(5) where I is the percentage value of growth inhibition, C is the measure of the diameter of the control circular mycelial inoculum (mm) and T is the extended diameter of the treated mycelial inoculum (mm).
(§3) All synthesized benzothiazole derivatives were evaluated to evaluate their in vitro antifungal activity against the five pathogenic dermatophytes that cause the most common dermatomycoses: Microsporum gypseum, Microsporum canis, Trichophyton mentagrophytes, Trichophyton tonsurans and Epidermophyton floccosum. All compounds were tested at a concentration of 100 µg/mL in DMSO, to evaluate the ability to inhibit the growth of dermatophyte cultures in Sabouraud Dextrose Agar (SDA). Briefly, room temperature incubation was performed and dermatophyte inhibition assessed by measuring the colony diameter at each disc for 7 days. The results are shown in Table 3 and were determined as the average of three different experiments.

A further data set has as its system Microsporum canis. The data set is described as above. The class given is cell-based, Microsporum canis CBS 131,110. As to conditions: 100 μg/mL, SDA, read-out: % Inhibition Growth M. canis. The method, then: as §1, §2, §3
The nature of data set [1]: Filtering parameters (in vitro SPF, UVAPF, UVA/UVB, critical wavelength) of W/O formulations on PMMA plates. The class given is physicochemical. How it is done: The synthesized derivatives were incorporated at increasing concentrations (1%, 2% and 3%) in a topical W/O cosmetic standard formulation, to evaluate the filtering parameters, having the following ingredients composition.
INCI (International Nomenclature Cosmetic Ingredients): aqua, glycerin, Euxyl PE 9010, xanthan gum, ceteareth-12, ceteareth-20, sterearic acid, butylhydroxytoluene, myritol, PEG-7 glyceryl cocoate and 10% sodium solution.
Briefly, the protocol is to finger spread 32.5 mg of each formulation onto 25 cm2 PMMA plates. Each formulation was tested in triplicate by recording five measurements for each dish, after incubation in the dark for 15–30 min at room temperature. UV transmittance data were recorded in the range 290–400 nm using a UV-VIS spectrophotometer.
Blank plate, SPF, UVA-PF and Critical Wavelength were achieved through SPF Calculator Software (version 2.1), Shimadzu, Milan, Italy) as previously reported.
For the determination of the SPF in vitro of the samples in formulation it was decided to use an internal method, developed by us previously and based on the adaptation of the ISO 24443: 2012 [38]. The transmittance spectrum, processed with a specific software (SPF Calculator), made it possible to obtain the SPF, UVAPF, critical lambda and UVA/UVB ratio values of the formulations containing the selected active ingredients (Table 1).

Data set [2] in a line: Photostability of formulations after solar simulator irradiation. The class given is physicochemical. The settings on record: for photostability of the filter: formulation on PMMA plate, photostable if residual % >= 80. The method, then: The method adopted to determine the photostability has been previously reported. Each plate was prepared as mentioned above and subjected to a solar irradiation quantified as the minimum UVA dose equivalent to an effective erythema radiant exposure. Transmittance of the sunscreen layer was recorded in the range of 290–400 nm before and after exposure to sunlight.
Equations (3) and (4) made it possible to derive the residual percentage of SPF in vitro (% SPFeff.) and UVA-PF (% UVA-PFeff.), respectively, which, if greater than or equal to 80, can categorize a filter as photostable. %SPFeff. = in vitro SPFafter/in vitro SPFbefore × 100(3) %UVA − PFeff. = UVA − PFafter/UVA − PFbefore × 100.(4)
Photostability is a crucial feature to delineate the efficacy and safety profile of a solar formulation. According to the criteria developed by Garoli et al., photodegradation was measured by recording the pre- and post-irradiation transmittance of PMMA plates with finger-coated formulations, applying the dose of UVA necessary to cause erythema.
The residual efficacy after exposure (%) indicates the loss of sun protection after sun exposure. Equations (3) and (4) made it possible to derive the residual percentage of SPF in vitro (% SPFeff.) and UVA-PF (% UVA-PFeff.), respectively, which, if greater than or equal to 80, make a filter to be categorized as photostable, according to regulation. It can be deduced from the data obtained that compounds 8a and 10a were photostable (Figure 2). […] Compound 9a containing furan in position 2 was photo-unstable with SPF and PF-UVA below 80%, and this could be attributable to photo-instability of its conjugated species. The order of photostability that emerged for the benzothiazole derivatives is: thiophene derivatives> pyrrole derivatives> furan derivatives.

As to `c1c[nH]c(-c2nc3ccccc3s2)c1` [Compound 8a, 2-(1H-Pyrrol-2-Yl)benzothiazole], the inhibition at 100 µg/mL worked out at 26 ± 0.66% in the data set on Epidermophyton floccosum and 25 ± 1.61% in the data set on Microsporum canis. For the same molecule, the figures for the SPF in data set [1] (1% in W/O formulation), in data set [1] (2% in W/O formulation) and in data set [1] (3% in W/O formulation) were 4.19, 7.16 and 13.05, respectively. The UVA/UVB in data set [1] (1% in W/O formulation) is 1.17; in data set [1] (2% in W/O formulation), 0.92; in data set [1] (3% in W/O formulation), 0.66. Moreover, the UVAPF in data set [1] (1% in W/O formulation) was 2.17; in data set [1] (2% in W/O formulation), 2.46; in data set [1] (3% in W/O formulation), 2.88. The λc worked out at 354 nm in data set [1] (1% in W/O formulation), 353 nm in data set [1] (2% in W/O formulation) and 354 nm in data set [1] (3% in W/O formulation). For the same molecule, the UVA protection profile entry in data set [1] (UVA-PF at least 1/3 of SPF to be efficient) was “good UVA protection profile”. In addition, in data set [2], the “photostability of the filter” value was “photostable”.

Consider `c1coc(-c2nc3ccccc3s2)c1` [Compound 9a, 2-(Furan-2-Yl)benzothiazole], for which the inhibition at 100 µg/mL in the data set on Epidermophyton floccosum turned out to be 68.85 ± 0.54%. For the same molecule, the inhibition at 100 µg/mL with Microsporum canis stood at 64 ± 0.72%. In data set [1] (1% in W/O formulation), this molecule yielded an SPF of 6.42, a UVA/UVB of 0.34, a UVAPF of 1.26 and a λc of 337 nm. In data set [1] (2% in W/O formulation), this molecule registered an SPF of 14.18, a UVA/UVB of 0.18, a UVAPF of 1.60 and a λc of 341 nm. In data set [1] (3% in W/O formulation), this molecule displayed an SPF of 20.23, a UVA/UVB of 0.13, a UVAPF of 1.50 and a λc of 343 nm. For the same molecule, in data set [2] (after irradiation), the “residual percentage of SPF in vitro (% SPFeff.)” value is “below 80%” and the “residual percentage of UVA-PF (% UVA-PFeff.)” value is “below 80%”. In data set [2], the “photostability of the filter” value was “photo-unstable”.

As for `c1csc(-c2nc3ccccc3s2)c1` [Compound 10a, 2-(Thiophen-2-Yl)benzothiazole], the inhibition at 100 µg/mL was 54.1 ± 0.75% in the data set with Epidermophyton floccosum and 66 ± 0.82% in the data set on Microsporum canis. Besides, the SPF in data set [1] (1% in W/O formulation) is listed as 4.86; in data set [1] (2% in W/O formulation) it was 5.14; in data set [1] (3% in W/O formulation) it was 10.73. Further, the UVA/UVB in data set [1] (1% in W/O formulation) amounted to 0.69; in data set [1] (2% in W/O formulation), 0.62; in data set [1] (3% in W/O formulation), 0.45. Further, the UVAPF is 1.60 in data set [1] (1% in W/O formulation), 1.60 in data set [1] (2% in W/O formulation) and 2.02 in data set [1] (3% in W/O formulation). Also, the values for the λc in data set [1] (1% in W/O formulation), in data set [1] (2% in W/O formulation) and in data set [1] (3% in W/O formulation) were 347 nm, 347 nm and 349 nm, respectively. Besides, the “photostability of the filter” value in data set [2] is reported as “photostable”.

Consider `NS(=O)(=O)c1ccc2nc(-c3cccs3)sc2c1` [Compound 10c, 2-(Thiophen-2-Yl)benzothiazole-6-Sulfonamide], for which the inhibition at 100 µg/mL in the data set on Epidermophyton floccosum turned out to be 10.7 ± 0.31%; with Microsporum canis, 14.3 ± 0.7%.

In the case of `c1c[nH]c(-c2nc3ccccc3[nH]2)c1` [Lead 10, reference compound], in the data set with Epidermophyton floccosum, the inhibition at 100 µg/mL came out at 102 ± 4.92%. Also, in the data set on Microsporum canis, the inhibition at 100 µg/mL worked out at 96.8 ± 3.56%. In data set [1] (1% in W/O formulation), this molecule had an SPF of 2.44, a UVA/UVB of 0.70, a UVAPF of 1.16 and a λc of 341 nm. In data set [1] (2% in W/O formulation), this molecule gave an SPF of 2.72, a UVA/UVB of 0.73, a UVAPF of 1.32 and a λc of 357 nm. In data set [1] (3% in W/O formulation), this molecule showed an SPF of 3.06, a UVA/UVB of 0.75, a UVAPF of 1.54 and a λc of 364 nm.
